Columns and labels:
Format in all cases: cell-based, Escherichia coli
[1] = tested on: E. coli SHV1 (APHA); experiment: VITEK 2 AST antimicrobial susceptibility testing; conditions: for Interoretation: E. coli SHV154; for Interpretation: VITEK 2 AST card
Description: (§1) Beta-lactamase clinical samples were collected from University Hospitals Leuven and tested for ESBL production using the disk diffusion method. The beta-lactamase reference isolates were purchased from International Health Management Associates (IHMA). Bacterial strains were cultivated in Mueller–Hinton Broth (MHB, Difco) at 37 °C. Whenever required, growth media were supplemented with appropriate antibiotics to the medium or plates (kanamycin 30 µg/mL, L-arabinose 0.5 mg/mL, and IPTG […]). Escherichia coli BL21 (ThermoFisher Scientific, Belgium) was used for cloning and plasmid amplification. For the selection of antibiotic resistant colonies, E. coli carrying plasmids was grown in LB agar plates supplemented with the relevant antibiotic. Bacterial CFU counting was done on blood agar plates (BD Biosciences, Belgium) or MHA agar plates. Species identification and antibiograms for all clinical isolates were performed using MALDI-Tof and VITEK® 2 automated system (BioMérieux, France).
(§2) Khodaparast et al Supplementary data
(§3) study. […] Abbreviations: S,
(§4) susceptible; I, intermediate; R, resistant.

[2] = tested on: E. coli NDM5a; experiment: VITEK 2 AST antimicrobial susceptibility testing; conditions: for Interoretation: E. coli NDM5a; for Interpretation: VITEK 2 AST card
Description: as §1, §2, §3, §4

[3] = tested on: E. coli TEM-104; experiment: VITEK 2 AST antimicrobial susceptibility testing; conditions: for Interoretation: E. coli TEM-104; for Interpretation: VITEK 2 AST card
Description: as §1, §2, §3, §4

[4] = tested on: E. coli TEM-148; experiment: VITEK 2 AST antimicrobial susceptibility testing; conditions: for Interoretation: E. coli TEM-148; for Interpretation: VITEK 2 AST card
Description: as §1, §2, §3, §4

[5] = tested on: E. coli NDM5b; experiment: VITEK 2 AST antimicrobial susceptibility testing; conditions: for Interoretation: E. coli NDM5b; for Interpretation: VITEK 2 AST card
Description: as §1, §2, §3, §4

[6] = tested on: E. coli TEM-16; experiment: VITEK 2 AST antimicrobial susceptibility testing; conditions: for Interoretation: E. coli TEM-16; for Interpretation: VITEK 2 AST card
Description: as §1, §2, §3, §4

[7] = tested on: E. coli TEM-206; experiment: VITEK 2 AST antimicrobial susceptibility testing; conditions: for Interoretation: E. coli TEM-206; for Interpretation: VITEK 2 AST card
Description: as §1, §2, §3, §4

[8] = tested on: E. coli TEM-30; conditions: for Interoretation: E. coli TEM-30; for Interpretation: VITEK 2 AST card
Description: as §1, §2, §3, §4

## Piperacillin / tazobactam
[1]
  Interoretation: R
  Interpretation: R
[2]
  Interoretation: R
  Interpretation: R
[3]
  Interoretation: *I
  Interpretation: *I
[4]
  Interoretation: *R
  Interpretation: *R
[5]
  Interoretation: R
  Interpretation: R
[6]
  Interoretation: *R
  Interpretation: *R
[7]
  Interoretation: *R
  Interpretation: *R
[8]
  Interoretation: *R
  Interpretation: *R

## CC(C)(O/N=C(\C(=O)N[C@@H]1C(=O)N2C(C(=O)[O-])=C(C[n+]3ccccc3)CS[C@H]12)c1csc(N)n1)C(=O)O [Ceftazidime]
[1]
  Interoretation: R
  Interpretation: R
[2]
  Interoretation: R
  Interpretation: R
[3]
  Interoretation: S
  Interpretation: S
[4]
  Interoretation: *I
  Interpretation: *I
[5]
  Interoretation: R
  Interpretation: R
[6]
  Interoretation: R
  Interpretation: R
[7]
  Interoretation: R
  Interpretation: R
[8]
  Interoretation: *I
  Interpretation: *I

## C[C@@H](O)[C@H]1C(=O)N2C(C(=O)O)=C(S[C@@H]3CN[C@H](C(=O)N(C)C)C3)[C@H](C)[C@H]12 [Meropenem]
[1]
  Interoretation: S
  Interpretation: S
[2]
  Interoretation: R
  Interpretation: R
[3]
  Interoretation: S
  Interpretation: S
[4]
  Interoretation: S
  Interpretation: S
[5]
  Interoretation: I
  Interpretation: I
[6]
  Interoretation: S
  Interpretation: S
[7]
  Interoretation: S
  Interpretation: S
[8]
  Interoretation: S
  Interpretation: S

## C[C@H]1COc2c(N3CCN(C)CC3)c(F)cc3c(=O)c(C(=O)O)cn1c23 [Levofloxacin]
[1]
  Interoretation: S
  Interpretation: S
[2]
  Interoretation: R
  Interpretation: R
[3]
  Interoretation: S
  Interpretation: S
[4]
  Interoretation: S
  Interpretation: S
[5]
  Interoretation: R
  Interpretation: R
[6]
  Interoretation: S
  Interpretation: S
[7]
  Interoretation: R
  Interpretation: R
[8]
  Interoretation: R
  Interpretation: R

## Amoxicillin + clavulanic acid
[1]
  Interoretation: R
  Interpretation: R
[2]
  Interoretation: R
  Interpretation: R
[3]
  Interoretation: R
  Interpretation: R
[4]
  Interoretation: *R
  Interpretation: *R
[5]
  Interoretation: R
  Interpretation: R
[6]
  Interoretation: *R
  Interpretation: *R
[7]
  Interoretation: *R
  Interpretation: *R
[8]
  Interoretation: *R
  Interpretation: *R

## CO[C@@]1(NC(=O)Cc2cccs2)C(=O)N2C(C(=O)O)=C(COC(N)=O)CS[C@@H]21 [Cefoxitin]
[1]
  Interoretation: R
  Interpretation: R
[2]
  Interoretation: R
  Interpretation: R
[3]
  Interoretation: S
  Interpretation: S
[4]
  Interoretation: S
  Interpretation: S
[5]
  Interoretation: R
  Interpretation: R
[6]
  Interoretation: S
  Interpretation: S
[7]
  Interoretation: S
  Interpretation: S
[8]
  Interoretation: S
  Interpretation: S

## Colistin
[1]
  Interoretation: S
  Interpretation: S
[2]
  Interoretation: S
  Interpretation: S
[3]
  Interoretation: S
  Interpretation: S
[4]
  Interoretation: S
  Interpretation: S
[5]
  Interoretation: S
  Interpretation: S
[6]
  Interoretation: S
  Interpretation: S
[7]
  Interoretation: S
  Interpretation: S
[8]
  Interoretation: S
  Interpretation: S

## CNC(C)C1CCC(N)C(OC2C(N)CC(N)C(OC3OCC(C)(O)C(NC)C3O)C2O)O1 (stereo not drawn) [Gentamicin]
[1]
  Interoretation: R
  Interpretation: R
[2]
  Interoretation: R
  Interpretation: R
[3]
  Interoretation: S
  Interpretation: S
[4]
  Interoretation: S
  Interpretation: S
[5]
  Interoretation: S
  Interpretation: S
[6]
  Interoretation: S
  Interpretation: S
[7]
  Interoretation: S
  Interpretation: S
[8]
  Interoretation: R
  Interpretation: R

## O=C1CN(/N=C/c2ccc([N+](=O)[O-])o2)C(=O)N1 [Nitrofurantoin]
[1]
  Interoretation: S
  Interpretation: S
[2]
  Interoretation: R
  Interpretation: R
[3]
  Interoretation: S
  Interpretation: S
[4]
  Interoretation: S
  Interpretation: S
[5]
  Interoretation: R
  Interpretation: R
[6]
  Interoretation: S
  Interpretation: S
[7]
  Interoretation: S
  Interpretation: S
[8]
  Interoretation: S
  Interpretation: S

## CO/N=C(\C(=O)N[C@@H]1C(=O)N2C(C(=O)OC(C)OC(C)=O)=C(COC(N)=O)CS[C@H]12)c1ccco1 (stereo partly drawn) [Cefuroxime Axetil]
[1]
  Interoretation: R
  Interpretation: R
[2]
  Interoretation: R
  Interpretation: R
[3]
  Interoretation: S
  Interpretation: S
[4]
  Interoretation: R
  Interpretation: R
[5]
  Interoretation: R
  Interpretation: R
[6]
  Interoretation: R
  Interpretation: R
[7]
  Interoretation: R
  Interpretation: R
[8]
  Interoretation: R
  Interpretation: R

## CO[C@@]1(NC(=O)C(C(=O)O)c2ccsc2)C(=O)N2[C@@H](C(=O)O)C(C)(C)S[C@@H]21 (stereo partly drawn) [Temocillin]
[1]
  Interoretation: R
  Interpretation: R
[2]
  Interpretation: R
[3]
  Interoretation: S
  Interpretation: S
[4]
  Interoretation: S
  Interpretation: S
[5]
  Interpretation: R
[6]
  Interpretation: R
[7]
  Interoretation: S
  Interpretation: S
[8]
  Interoretation: S
  Interpretation: S

## CN(C)c1cc(NC(=O)CNC(C)(C)C)c(O)c2c1C[C@H]1C[C@H]3[C@H](N(C)C)C(O)=C(C(N)=O)C(=O)[C@@]3(O)C(O)=C1C2=O [Tigecycline]
[1]
  Interoretation: S
  Interpretation: S
[2]
  Interoretation: S
  Interpretation: S
[3]
  Interoretation: S
  Interpretation: S
[4]
  Interoretation: S
  Interpretation: S
[5]
  Interoretation: S
  Interpretation: S
[6]
  Interoretation: S
  Interpretation: S
[7]
  Interoretation: S
  Interpretation: S
[8]
  Interoretation: I
  Interpretation: I

— paper PMC10492782, “Exploiting the aggregation propensity of beta-lactamases to design inhibitors that induce enzyme misfolding” (Nature Communications, 2023)
